Assays:
[1] = biological target: T1, Serine/threonine-protein kinase Nek9 (Homo sapiens) (UniProt Q8TD19); assay: Selectivity interaction (KinomeScan (DiscoverX)) EUB0000229b NEK9; conditions: at 10 µM
T1 sequence (whole entry): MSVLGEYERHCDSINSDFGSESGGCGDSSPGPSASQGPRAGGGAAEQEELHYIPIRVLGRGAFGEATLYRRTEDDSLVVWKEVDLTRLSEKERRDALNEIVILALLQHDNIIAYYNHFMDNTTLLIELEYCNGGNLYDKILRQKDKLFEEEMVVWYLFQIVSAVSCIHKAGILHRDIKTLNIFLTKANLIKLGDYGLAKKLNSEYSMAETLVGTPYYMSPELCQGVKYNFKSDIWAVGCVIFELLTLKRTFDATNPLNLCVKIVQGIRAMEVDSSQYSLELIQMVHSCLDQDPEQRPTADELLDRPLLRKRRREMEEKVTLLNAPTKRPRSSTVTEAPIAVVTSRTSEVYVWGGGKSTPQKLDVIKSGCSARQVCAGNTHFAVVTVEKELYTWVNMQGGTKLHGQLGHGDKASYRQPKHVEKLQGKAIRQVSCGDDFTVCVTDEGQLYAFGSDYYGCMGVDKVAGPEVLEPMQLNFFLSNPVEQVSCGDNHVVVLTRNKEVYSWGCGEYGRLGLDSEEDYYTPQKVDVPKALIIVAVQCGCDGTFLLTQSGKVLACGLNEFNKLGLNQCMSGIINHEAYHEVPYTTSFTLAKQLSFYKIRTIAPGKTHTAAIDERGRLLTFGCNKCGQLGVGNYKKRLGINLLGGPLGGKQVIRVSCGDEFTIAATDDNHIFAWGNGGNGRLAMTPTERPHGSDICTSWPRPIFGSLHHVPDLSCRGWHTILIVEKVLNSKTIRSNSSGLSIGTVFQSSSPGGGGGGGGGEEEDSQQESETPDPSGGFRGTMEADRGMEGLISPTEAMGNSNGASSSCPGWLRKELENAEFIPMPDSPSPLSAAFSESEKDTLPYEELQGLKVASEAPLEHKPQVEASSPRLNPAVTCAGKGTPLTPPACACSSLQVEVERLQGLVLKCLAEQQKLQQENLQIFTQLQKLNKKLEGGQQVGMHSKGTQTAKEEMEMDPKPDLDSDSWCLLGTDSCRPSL

[2] = biological target: Dual specificity testis-specific protein kinase 1 (Homo sapiens) (UniProt Q15569); conditions: at 10 µM
Chain of Dual specificity testis-specific protein kinase 1 (Homo sapiens) (Q15569 whole entry, looked up): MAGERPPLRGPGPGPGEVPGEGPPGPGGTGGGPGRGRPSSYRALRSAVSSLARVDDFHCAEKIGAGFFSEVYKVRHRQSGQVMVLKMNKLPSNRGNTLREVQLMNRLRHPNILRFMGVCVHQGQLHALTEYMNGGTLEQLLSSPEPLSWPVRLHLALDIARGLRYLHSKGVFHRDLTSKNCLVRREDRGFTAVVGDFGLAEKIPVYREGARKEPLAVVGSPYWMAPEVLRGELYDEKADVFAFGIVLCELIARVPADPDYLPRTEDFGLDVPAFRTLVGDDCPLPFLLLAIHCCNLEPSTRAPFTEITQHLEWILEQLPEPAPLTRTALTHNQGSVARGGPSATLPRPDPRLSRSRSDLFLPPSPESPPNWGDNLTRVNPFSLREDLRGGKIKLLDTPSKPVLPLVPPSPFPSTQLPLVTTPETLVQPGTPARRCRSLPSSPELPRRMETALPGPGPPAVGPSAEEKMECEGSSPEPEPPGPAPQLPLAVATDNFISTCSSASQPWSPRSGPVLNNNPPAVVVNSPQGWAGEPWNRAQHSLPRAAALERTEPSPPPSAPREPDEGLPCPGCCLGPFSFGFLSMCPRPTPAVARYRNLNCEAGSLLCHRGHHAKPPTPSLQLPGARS

[3] = biological target: Calcium/calmodulin-dependent protein kinase type II subunit beta (Homo sapiens) (UniProt Q13554); assay: Selectivity interaction (ActivX KiNativ screen (kinase selectivity in THP-1 cell lysates)) EUB0000639a CAMK2B; format: subcellular; conditions: lysate, at 1 µM
Chain of Calcium/calmodulin-dependent protein kinase type II subunit beta (Homo sapiens) (Q13554 whole entry): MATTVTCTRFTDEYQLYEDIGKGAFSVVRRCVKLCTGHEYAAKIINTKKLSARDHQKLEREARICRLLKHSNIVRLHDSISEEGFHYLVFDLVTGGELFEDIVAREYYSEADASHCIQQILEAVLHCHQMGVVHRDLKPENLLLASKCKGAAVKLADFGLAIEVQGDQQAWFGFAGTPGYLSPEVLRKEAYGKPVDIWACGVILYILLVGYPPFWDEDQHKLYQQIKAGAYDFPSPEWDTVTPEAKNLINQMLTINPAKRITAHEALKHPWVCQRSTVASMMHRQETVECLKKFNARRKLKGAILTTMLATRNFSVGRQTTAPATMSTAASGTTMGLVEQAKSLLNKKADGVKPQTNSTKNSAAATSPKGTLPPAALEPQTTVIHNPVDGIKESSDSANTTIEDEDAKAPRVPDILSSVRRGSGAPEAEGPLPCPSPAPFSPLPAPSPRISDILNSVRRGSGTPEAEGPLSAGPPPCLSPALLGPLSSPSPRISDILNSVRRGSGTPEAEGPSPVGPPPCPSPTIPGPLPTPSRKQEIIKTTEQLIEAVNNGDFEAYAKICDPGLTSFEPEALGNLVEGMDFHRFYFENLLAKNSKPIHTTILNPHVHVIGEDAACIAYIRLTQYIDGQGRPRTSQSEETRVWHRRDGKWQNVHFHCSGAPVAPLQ

[4] = biological target: T2, Serine/threonine-protein kinase ULK1 (Homo sapiens) (UniProt O75385); assay: Selectivity interaction (ActivX KiNativ screen (kinase selectivity in THP-1 cell lysates)) EUB0000639a ULK1; format: subcellular; conditions: lysate
T2 sequence (whole entry): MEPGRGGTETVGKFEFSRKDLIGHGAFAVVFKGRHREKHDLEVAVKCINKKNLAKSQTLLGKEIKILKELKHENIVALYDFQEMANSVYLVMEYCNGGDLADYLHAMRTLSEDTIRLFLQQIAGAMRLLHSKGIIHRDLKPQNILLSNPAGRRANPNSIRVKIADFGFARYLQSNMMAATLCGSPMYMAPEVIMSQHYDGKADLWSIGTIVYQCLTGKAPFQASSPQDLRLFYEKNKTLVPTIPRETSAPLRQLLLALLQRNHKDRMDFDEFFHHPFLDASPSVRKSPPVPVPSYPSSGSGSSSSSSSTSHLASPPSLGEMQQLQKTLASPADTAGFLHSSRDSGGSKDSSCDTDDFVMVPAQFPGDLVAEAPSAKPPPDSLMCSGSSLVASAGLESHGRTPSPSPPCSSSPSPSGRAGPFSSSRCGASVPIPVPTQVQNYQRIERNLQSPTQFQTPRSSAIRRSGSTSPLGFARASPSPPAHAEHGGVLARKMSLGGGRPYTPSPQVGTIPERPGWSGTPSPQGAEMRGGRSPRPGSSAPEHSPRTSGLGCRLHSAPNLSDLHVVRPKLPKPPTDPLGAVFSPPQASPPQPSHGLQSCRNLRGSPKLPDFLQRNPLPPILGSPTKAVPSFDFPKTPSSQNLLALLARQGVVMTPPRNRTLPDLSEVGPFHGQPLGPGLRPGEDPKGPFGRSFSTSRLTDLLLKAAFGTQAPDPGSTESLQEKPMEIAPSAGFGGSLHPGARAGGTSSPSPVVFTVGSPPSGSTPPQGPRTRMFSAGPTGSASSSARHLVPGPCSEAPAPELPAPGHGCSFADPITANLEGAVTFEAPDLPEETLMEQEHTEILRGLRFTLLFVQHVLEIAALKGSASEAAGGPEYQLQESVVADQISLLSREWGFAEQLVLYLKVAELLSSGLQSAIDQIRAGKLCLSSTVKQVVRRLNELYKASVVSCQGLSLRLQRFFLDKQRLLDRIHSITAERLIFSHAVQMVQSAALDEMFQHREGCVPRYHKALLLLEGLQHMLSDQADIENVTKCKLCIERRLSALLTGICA

[5] = biological target: RAF proto-oncogene serine/threonine-protein kinase (Homo sapiens) (UniProt P04049); assay: Selectivity interaction (Ambit KINOMEscan and KiNATiv profiling in Jurkat cells) EUB0000090b RAF1; format: cell-based; conditions: at 1 µM
Chain of RAF proto-oncogene serine/threonine-protein kinase (Homo sapiens) (P04049 whole entry): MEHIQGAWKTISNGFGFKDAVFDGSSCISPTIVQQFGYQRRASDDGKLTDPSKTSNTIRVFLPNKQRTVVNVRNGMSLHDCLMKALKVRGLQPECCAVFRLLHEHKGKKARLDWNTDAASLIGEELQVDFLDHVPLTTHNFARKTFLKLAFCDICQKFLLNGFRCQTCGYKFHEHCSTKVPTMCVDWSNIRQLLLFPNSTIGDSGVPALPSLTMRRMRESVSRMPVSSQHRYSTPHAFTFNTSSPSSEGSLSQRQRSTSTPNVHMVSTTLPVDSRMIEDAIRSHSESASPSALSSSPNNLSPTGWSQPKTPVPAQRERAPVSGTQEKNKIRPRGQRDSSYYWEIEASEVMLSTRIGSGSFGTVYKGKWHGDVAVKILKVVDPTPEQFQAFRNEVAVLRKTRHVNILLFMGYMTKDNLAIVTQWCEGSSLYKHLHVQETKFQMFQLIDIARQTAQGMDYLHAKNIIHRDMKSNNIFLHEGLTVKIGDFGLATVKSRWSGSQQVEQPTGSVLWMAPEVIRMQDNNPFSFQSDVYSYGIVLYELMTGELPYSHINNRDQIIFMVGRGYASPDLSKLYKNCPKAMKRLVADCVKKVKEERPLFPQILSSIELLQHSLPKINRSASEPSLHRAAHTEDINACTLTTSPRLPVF

[6] = system: Tyrosine-protein kinase ABL1 (Homo sapiens), P00519 [F317L]; assay: Selectivity interaction (KinomeScan (DiscoverX)) EUB0000045b ABL1; conditions: at 1 µM
Chain of Tyrosine-protein kinase ABL1 (Homo sapiens), P00519 [F317L] (P00519 whole entry F317L): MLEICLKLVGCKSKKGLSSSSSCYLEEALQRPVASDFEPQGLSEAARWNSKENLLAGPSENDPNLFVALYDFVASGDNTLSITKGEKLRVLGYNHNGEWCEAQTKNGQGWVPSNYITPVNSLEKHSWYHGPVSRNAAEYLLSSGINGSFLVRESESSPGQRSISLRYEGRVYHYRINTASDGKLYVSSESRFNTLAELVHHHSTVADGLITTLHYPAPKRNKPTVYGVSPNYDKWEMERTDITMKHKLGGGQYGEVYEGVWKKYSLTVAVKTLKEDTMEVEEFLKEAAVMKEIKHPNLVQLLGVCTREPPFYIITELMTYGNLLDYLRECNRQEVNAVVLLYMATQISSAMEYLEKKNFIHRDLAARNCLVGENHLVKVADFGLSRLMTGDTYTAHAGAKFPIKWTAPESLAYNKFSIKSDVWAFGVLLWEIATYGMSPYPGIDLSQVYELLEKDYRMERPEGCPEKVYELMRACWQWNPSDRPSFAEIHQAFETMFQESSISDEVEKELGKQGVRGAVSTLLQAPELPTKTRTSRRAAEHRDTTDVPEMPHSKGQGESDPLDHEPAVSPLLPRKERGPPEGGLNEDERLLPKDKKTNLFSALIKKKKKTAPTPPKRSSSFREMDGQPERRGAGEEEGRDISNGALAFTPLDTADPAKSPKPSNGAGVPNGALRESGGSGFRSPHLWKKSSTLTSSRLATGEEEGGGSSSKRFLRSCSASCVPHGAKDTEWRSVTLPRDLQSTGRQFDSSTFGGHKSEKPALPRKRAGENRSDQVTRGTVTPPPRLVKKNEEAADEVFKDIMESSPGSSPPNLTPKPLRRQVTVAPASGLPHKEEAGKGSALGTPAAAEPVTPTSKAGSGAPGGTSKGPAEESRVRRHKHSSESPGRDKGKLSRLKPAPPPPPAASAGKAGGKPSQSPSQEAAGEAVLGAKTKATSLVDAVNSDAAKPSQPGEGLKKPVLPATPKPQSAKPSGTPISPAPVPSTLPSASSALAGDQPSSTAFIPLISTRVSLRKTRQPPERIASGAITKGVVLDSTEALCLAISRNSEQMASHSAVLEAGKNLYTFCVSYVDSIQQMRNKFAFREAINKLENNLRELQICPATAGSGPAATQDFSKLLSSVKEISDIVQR

[7] = biological target: Interleukin-1 receptor-associated kinase 1 (Homo sapiens) (UniProt P51617); assay: Selectivity interaction (KinomeScan (DiscoverX)) EUB0001619a IRAK1; conditions: at 1 µM
Chain of Interleukin-1 receptor-associated kinase 1 (Homo sapiens) (P51617 whole entry, looked up): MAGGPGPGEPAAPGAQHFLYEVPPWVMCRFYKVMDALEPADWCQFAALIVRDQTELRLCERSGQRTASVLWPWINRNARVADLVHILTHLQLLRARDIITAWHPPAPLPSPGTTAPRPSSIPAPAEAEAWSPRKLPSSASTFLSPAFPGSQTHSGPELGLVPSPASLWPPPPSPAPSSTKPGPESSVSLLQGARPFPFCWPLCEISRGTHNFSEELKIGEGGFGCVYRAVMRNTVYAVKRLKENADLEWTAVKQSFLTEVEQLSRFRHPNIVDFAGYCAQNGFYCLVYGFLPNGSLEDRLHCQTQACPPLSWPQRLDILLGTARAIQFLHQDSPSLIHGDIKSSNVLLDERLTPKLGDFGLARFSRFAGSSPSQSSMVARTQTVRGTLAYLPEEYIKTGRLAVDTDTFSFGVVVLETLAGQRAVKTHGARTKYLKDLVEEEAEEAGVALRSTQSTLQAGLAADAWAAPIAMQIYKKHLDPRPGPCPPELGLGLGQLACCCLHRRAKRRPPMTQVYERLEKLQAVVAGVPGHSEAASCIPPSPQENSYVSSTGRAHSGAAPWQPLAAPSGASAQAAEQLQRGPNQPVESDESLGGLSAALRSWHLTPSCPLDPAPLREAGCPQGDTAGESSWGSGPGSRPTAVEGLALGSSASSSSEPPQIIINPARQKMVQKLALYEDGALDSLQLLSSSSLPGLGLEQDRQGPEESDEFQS

[8] = biological target: Serine/threonine-protein kinase 26 (Homo sapiens, UniProt Q9P289); conditions: PBMC, at 1 µM
Chain of Serine/threonine-protein kinase 26 (Q9P289 2-416 limits assumed): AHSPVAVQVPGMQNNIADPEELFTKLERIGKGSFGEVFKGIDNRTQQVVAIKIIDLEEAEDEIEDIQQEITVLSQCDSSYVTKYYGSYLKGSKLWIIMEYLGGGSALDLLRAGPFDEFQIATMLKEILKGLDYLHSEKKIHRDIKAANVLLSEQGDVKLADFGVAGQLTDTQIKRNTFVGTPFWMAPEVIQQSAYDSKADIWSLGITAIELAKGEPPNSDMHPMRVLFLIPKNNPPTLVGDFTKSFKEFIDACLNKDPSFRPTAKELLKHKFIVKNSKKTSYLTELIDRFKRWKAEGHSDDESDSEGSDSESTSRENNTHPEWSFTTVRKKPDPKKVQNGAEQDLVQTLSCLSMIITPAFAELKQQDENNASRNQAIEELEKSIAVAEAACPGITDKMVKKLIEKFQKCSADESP

[9] = biological target: Serine/threonine-protein kinase PLK1 (Homo sapiens, UniProt P53350); assay: Selectivity interaction (KinomeScan (DiscoverX)) EUB0000607a PLK1; conditions: at 10 µM
Chain of Serine/threonine-protein kinase PLK1 (P53350 whole entry): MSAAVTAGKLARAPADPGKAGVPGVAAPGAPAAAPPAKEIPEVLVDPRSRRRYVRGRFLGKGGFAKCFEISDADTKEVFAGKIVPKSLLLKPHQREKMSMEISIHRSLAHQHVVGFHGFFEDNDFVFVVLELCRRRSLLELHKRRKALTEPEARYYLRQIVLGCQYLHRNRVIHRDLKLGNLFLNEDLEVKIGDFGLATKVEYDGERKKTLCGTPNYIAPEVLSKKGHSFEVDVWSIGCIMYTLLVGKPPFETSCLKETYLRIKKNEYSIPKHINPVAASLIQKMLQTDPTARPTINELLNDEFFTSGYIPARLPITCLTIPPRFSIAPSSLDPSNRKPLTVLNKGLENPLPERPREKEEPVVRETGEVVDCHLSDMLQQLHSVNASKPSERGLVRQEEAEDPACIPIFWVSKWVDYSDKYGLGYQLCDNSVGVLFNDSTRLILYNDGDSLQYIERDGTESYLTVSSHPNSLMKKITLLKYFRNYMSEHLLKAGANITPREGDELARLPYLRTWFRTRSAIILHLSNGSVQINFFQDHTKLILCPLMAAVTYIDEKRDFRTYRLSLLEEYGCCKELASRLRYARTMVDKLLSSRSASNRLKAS

## COc1cc(N(C)c2ccnc3ccc(C(F)(F)F)cc23)cc(OC)c1OC
[1]
  % binding: 93%

## CCN(CC)CCCCNc1ncc2cc(-c3cc(OC)cc(OC)c3)c(NC(=O)NC(C)(C)C)nc2n1
[2]
  % of control: 100%

## CC[C@@H]1[C@H](F)C(=O)N[C@@H]1COc1nccc2cc(C(N)=O)c(OC)cc12 [ZIMLOVISERTIB]
[3]
  % of inhibition: 10%
[4]; at 0.01 µM
  % of inhibition: 4.8%
[4]; at 0.04 µM
  % of inhibition: 4.1%
[4]; at 0.2 µM
  % of inhibition: 6.2%
[4]; at 1 µM
  % of inhibition: -18.5%
[4]; at 5 µM
  % of inhibition: 8%

## CN(C)C/C=C/C(=O)Nc1ccc(C(=O)N2CCCC(Nc3ncc(Cl)c(-c4c[nH]c5ccccc45)n3)C2)cc1 (stereo not drawn)
[5]
  % of control: 91%

## C=CC(=O)Nc1cc(-n2c(=O)ccc3cnc4ccc(-c5ccc(NS(C)(=O)=O)cc5)cc4c32)ccc1C
[6]
  % of control: 100%

## N#Cc1cccc(-c2c[nH]c3ncnc(N4CCOCC4)c23)c1
[7]
  % of control: 23%
[8]
  % of inhibition: 61%

## CNC(=O)Nc1ccc(-c2nc(N3CC4CCC(C3)O4)c3cnn(C4CCC5(CC4)OCCO5)c3n2)cc1
[9]
  % of control: 77%

From ChEMBL document CHEMBL5465560, “Selectivity Literature for EUbOPEN Chemogenomic Library” (2024)
